# From patent publication US20060106026A1, “4-(4-methylpiperazin-1-ylmethyl)-n-[4-pyridin-3-yl)pyrimidin-2-ylamino)phenyl]-benzamide for treating anaplastic thyroid cancer” (priority 2002, published 2006)
# Values joined by “and” are separate entries in the source; they are usually repeats but may differ in a detail not shown here. Equal entries are not always repeated.
# Legend:
# FRO cells = conditions: single daily administration of 50 mg/kg over 14 consecutive days, i.p.
# Description: Mouse xenograft model. All mice were maintained in the Nagasaki University (Nagasaki, Japan) animal facility and all animal experiments described in this study were conducted in accordance with the principles and procedures outlined in the Guide for the Care and Use of Laboratory Animals of the Nagasaki University School of Medicine. Five million FRO cells suspended in RPMI 1640 were injected s.c. into the flanks of 8-week-old female BalB/c nu/nu mice (Charles-River Japan, Tokyo, Japan). Tumor sizes were measured every other day with calipers and tumor volumes were calculated according to the formula: a^2×b×0.4 where a is the smallest diameter and b is the diameter perpendicular to a. […] Mice in the control group received injections of pure water. The body weight feeding behavior and motor activity of each animal were monitored as indicators of general health.
# Statistical analysis: Data are presented as mean ±SD unless otherwise specified. Student's t-test and Mann Whitney U test were used for comparison between two groups for parametric and nonparametric data, respectively. A p value <0.05 is considered statistically significant.
# KTC-1 [1] = experiment: Cell growth assay, experiment 1 (cell count kit 48 h; growth curve 5 days); conditions: for cell number quantified with a cell count kit (Wako), mean: 48 hour-treatment, no SALT I: 0.413
# ERK1/2 = tested on: ERK1/2
# Description: Abl was immunoprecipitated from cell lysates using the indicated antibody. In vitro kinase assay was performed as described previously (Dorey et al., Oncogene, 2000, […]:8075-84). Radiolabelled GST-Crk was quantified using a PhosphorImager (Molecular Dynamics, Inc., Sunnyvale, Calif., USA). […] Stimulation was with 20% FCS for 8 minutes, cell lysates were collected and subjected to SDS-PAGE and Western blotting carried out using antibodies against ERK1/2 and the phosphorylated form of ERK1/2. […] A common response to extracellular signals such as growth factors is the activation of the mitogen-activated protein (MAP) kinase cascade.
# 1F3 cell line = conditions: IF3 cells, 10 μM of SALT I (data not shown)
# ARO [2] = experiment: Cell growth assay, experiment 1 (cell count kit 48 h; growth curve 5 days); conditions: for cell number quantified with a cell count kit (Wako), mean: 48 hour-treatment, no SALT I: 0.959
# ARO [3] = conditions: 10 μM of SALT I
# Description: (§1) For flow cytometry analysis, cells were fixed with 70% ethanol and wash with PBS. After pre-incubation with RNase A (0.1 mg per ml) at room temperature, cells were stained with PI (25 μg per ml). Fluorescence was measured by using FACScan flow cytometer (Becton Dickinson, Mountain View, Calif.). This experiment was performed at least three times.
# TPC-1 = conditions: TPC-1, 10 μM of SALT I, 48 hours
# Description: as §1
# [4] = tested on: thyroid cancer cell lines
# Description: as §1
# FRO = conditions: 10 μM of SALT I, 48 hours
# Description: as §1
# 1F3 = conditions: 1F3, 10 μM of SALT I, 48 hours
# Description: as §1
# KTC-1 [5] = conditions: KTC-1, 10 μM of SALT I, 48 hours
# Description: as §1
# [6] = tested on: Refractory Progressive Thyroid Carcinoma; conditions: SALT I without any other therapy; rapid growth and invasion during the previous year
# Description: This clinical study is part of the Phase I/II clinical study which is exploratory in nature.
# When any mild adverse effect occurs, the dose is decreased to 200 mg once daily depending on the degree of the adverse effect. […] In principle, where the tumor size is reduced by half, the dose is increased up to 800 mg/day and continued for a maximum of six months. […] No concomitant use of an anticancer drug is permitted in principle. Drugs that relieve other conditions or symptoms may be used concomitantly with caution exercised for their adverse effects.
structure (smiles),measurement,setting,value
CS(=O)(=O)O.Cc1ccc(NC(=O)c2ccc(CN3CCN(C)CC3)cc2)cc1Nc1nccc(-c2cccnc2)n1 [SALT I],anti-tumor effect,FRO cells,strong anti-tumor effect
same,"growth suppression, dose dependence","KTC-1 [1]; KTC-1 (wild type p53), lower than 50 μM, 48 h",do not
same,cell growth curve on a 5 day period,"KTC-1 [1]; KTC-1, 10 μM of SALT I (data not shown)",do not change the cell growth
same,cell death,"KTC-1 [1]; KTC-1, 50 μM of SALT I, 48 h",died
same,"cell number quantified with a cell count kit (Wako), mean","KTC-1 [1]; KTC-1, SALT I 1 μM",0.403
same,"cell number quantified with a cell count kit (Wako), mean","KTC-1 [1]; KTC-1, SALT I 10 μM",0.379
same,"cell number quantified with a cell count kit (Wako), mean","KTC-1 [1]; KTC-1, SALT I 50 μM",0.064
same,phosphorylation of ERK1/2 in response to serum stimulation,ERK1/2,had no effect on its phosphorylation
same,level of p-ERK1/2,"ERK1/2; ARO and FRO, 10 μM SALT I for two hours, 20% FCS for 8 minutes",did not affect
same,cell growth curve on a 5 day period,1F3 cell line,do not change the cell growth
same,"growth suppression, dose dependence","ARO [2]; ARO (mutant p53), lower than 50 μM, 48 h",show growth suppression in SALT I dose dependent manner
same,cell growth curve on a 5 day period,"ARO [2]; ARO, 10 μM of SALT I, compared to control cells",time-dependent reduction of cell growth
same,cell death,"ARO [2]; ARO, 50 μM of SALT I, 48 h",died
same,"cell number quantified with a cell count kit (Wako), mean","ARO [2]; ARO, SALT I 1 μM",0.785
same,"cell number quantified with a cell count kit (Wako), mean","ARO [2]; ARO, SALT I 10 μM",0.539
same,"cell number quantified with a cell count kit (Wako), mean","ARO [2]; ARO, SALT I 50 μM",0.096
same,increase of the proportion of cells in G2/M-phase versus DMSO,ARO [3]; 48 hours (9.28% vs. 3.78%),increased more then two-fold
same,percentage of cells in G2-M phase,"ARO [3]; 48 hours, DMSO 3.8",9.28% and 9.3%
same,percentage of cells in S phase,"ARO [3]; 48 hours, DMSO 19.7",13.1%
same,percentage of cells in G1 phase,"ARO [3]; 48 hours, DMSO 76.6",77.6%
same,effect on cell cycle (G2/M or S-phase changes),TPC-1,No such changes were observed
same,percentage of cells in S phase,TPC-1; DMSO 9.7,9.3%
same,percentage of cells in G2-M phase,TPC-1; DMSO 22.6,13.1%
same,percentage of cells in G1 phase,TPC-1; DMSO 67.8,77.6%
same,DNA fragmentation in the DNA ladder assay,[4]; after 48 hours of treatment (data not shown),no DNA fragmentation was detected
same,apoptotic fraction (sub-G1),"[4]; after 48 hours of treatment, in any cell line",did not significantly increase
same,effect on cell cycle (arrest),FRO,S-phase arrest
same,percentage of cells in G2-M phase,FRO; DMSO 24.95,15% and 14.98%
same,percentage of cells in G1 phase,FRO; DMSO 32.16,30.91%
same,percentage of cells in S phase,FRO; DMSO 43.26,54% and 54.11%
same,effect on cell cycle (G2/M or S-phase changes),1F3,No such changes were observed
same,percentage of cells in S phase,1F3; DMSO 9.4,9.1%
same,percentage of cells in G2-M phase,1F3; DMSO 27.3,20.4%
same,percentage of cells in G1 phase,1F3; DMSO 63.3,70.5%
same,effect on cell cycle (G2/M or S-phase changes),KTC-1 [5],No such changes were observed
same,percentage of cells in S phase,KTC-1 [5]; DMSO 7.68,6.53%
same,percentage of cells in G2-M phase,KTC-1 [5]; DMSO 20.11,18.7%
same,percentage of cells in G1 phase,KTC-1 [5]; DMSO 72.2,74.77%
same,tumor growth in first patient (preliminary results),[6],stopped their growth for 3 months
